Reference: patent publication US6362171B1, “Aminoaklanoyl-linked conjugates of 2′,5′-oligoadenylate and antiviral uses thereof” (priority 1997, dated 2002)
Several values for one entry are separate records, joined by “and”; a condition that tells them apart may be missing. Equal values may be shown once.

What was measured:
[1] = test system: HIV-1 strain IIIB; test: Infected centers assay: inhibition of HIV-1 induced syncytia formation (HIV-1 replication); format: cell-based; conditions: 300 μM compound; PBL treated 2 hours, infected with HIV-1 IIIB, co-cultured with Sup T1 cells, read at 72 hours; control 144 syncytia/10^4 cells; mean of triplicate
Protocol: The infected centers assay as described by Henderson et al., Virology 1991, 182, 186, was used to measure the ability of the conjugated trimer core compounds of the invention to inhibit HIV-1 induced syncytia formation, an indicator of HIV-1 replication in T cells. […] The infected PBL were maintained in RPMI-1640 medium supplemented with 10% (v/v) heat-inactivated fetal calf serum at 37° C. in a humidified 5% CO2 in air atmosphere. After 48 hours, the cells were washed twice in Hank's balanced salt solution, serially diluted and seeded into multiple wells of a 96-well microtiter plate. Immediately, 2×10^5 exponentially growing Sup T1 cells were added to each well; Sup T1 cells readily form a syncytium with a cell which is productively infected with HIV-1. The wells were examined daily for the presence of syncytia, using a tissue culture microscope. The first signs of syncytia formation can be seen in 12 hours, with some complete syncytia developing by 24 hours. Final results were read at 72 hours. Each syncytium was counted as a single infected cell. The number of syncytia per seeded cell was determined and expressed as an infected center per infected cell. The number of syncytia per […] was 144 for the control Sup T1 cells.

[2] = biological target: T1, HIV-1 reverse transcriptase (HIV-1 RT) (Human immunodeficiency virus type 1 group M subtype B, UniProt P04585); test: Inhibition of HIV-1 reverse-transcriptase activity in culture supernatant of infected Sup T1 cells; format: cell-based; conditions: for Inhibition of HIV-1 RT activity: 300 μM compound, Sup T1 cells treated 6 hours, supernatant at 96 hours post-infection, mean of duplicate
T1 construct: culture supernatant was removed and HIV-1 RT activity was assayed in triplicate; endogenous in cells; host or cells: Sup T1 cells infected with HIV-1; virion-associated enzyme in the culture supernatant

[3] = biological target: recombinant human GST-RNase L (Homo sapiens, UniProt Q05823); conditions: 10 μM compound; mean of duplicate
[4] = biological target: T2, RNase L (Homo sapiens, UniProt Q05823); conditions: literature ref [10]; cited from earlier work
T2 sequence (Q05823 1-741): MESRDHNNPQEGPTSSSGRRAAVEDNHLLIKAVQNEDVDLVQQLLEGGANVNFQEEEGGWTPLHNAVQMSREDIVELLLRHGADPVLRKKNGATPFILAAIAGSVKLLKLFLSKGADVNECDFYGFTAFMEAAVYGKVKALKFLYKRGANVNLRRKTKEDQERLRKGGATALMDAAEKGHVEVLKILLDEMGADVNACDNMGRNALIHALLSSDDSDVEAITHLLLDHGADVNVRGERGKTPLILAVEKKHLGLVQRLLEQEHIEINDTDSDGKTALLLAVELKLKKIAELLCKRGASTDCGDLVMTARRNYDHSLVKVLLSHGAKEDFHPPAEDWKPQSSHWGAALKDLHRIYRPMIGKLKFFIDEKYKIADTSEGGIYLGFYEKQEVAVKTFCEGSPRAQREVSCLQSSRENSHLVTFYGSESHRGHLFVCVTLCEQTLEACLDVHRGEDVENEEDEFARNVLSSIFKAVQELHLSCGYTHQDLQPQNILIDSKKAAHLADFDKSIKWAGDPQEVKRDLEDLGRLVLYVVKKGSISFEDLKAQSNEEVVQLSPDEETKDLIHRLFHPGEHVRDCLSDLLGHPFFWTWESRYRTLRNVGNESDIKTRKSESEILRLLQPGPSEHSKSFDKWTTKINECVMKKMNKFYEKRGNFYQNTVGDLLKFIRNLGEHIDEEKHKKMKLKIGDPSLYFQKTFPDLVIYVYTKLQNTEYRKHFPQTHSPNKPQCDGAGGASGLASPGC

[5] = test system: HIV-1; conditions: literature ref [11]; cited from earlier work

Compound	Inhibition of syncytia formation (fold reduction in infection) [1]	inhibition at 300 µM ([2]; SUP-T1, read-out: Inhibition of HIV-1 RT activity)	Inhibition of HIV-1 RT activity [2]	Activation of RNase L (percent hydrolysis of poly(U)-3′-[32P]pCp) [3]	Activation of RNase L [4]	HIV-1 production [5]
Nc1ncnc2c1ncn2[C@@H]1O[C@H](CO)C[C@H]1O [Cordycepin]	1.5 fold	13%				
Nc1nc2ncc(CNc3ccc(C(=O)N[C@@H](CCC(=O)NCCCCCC(=O)O[C@@H]4C[C@@H](COP(=O)(O)O[C@@H]5C[C@@H](COP(=O)(O)O[C@@H]6C[C@@H](CO)O[C@H]6n6cnc7c(N)ncnc76)O[C@H]5n5cnc6c(N)ncnc65)O[C@H]4n4cnc5c(N)ncnc54)C(=O)O)cc3)nc2c(=O)[nH]1 [compound 26]	2.4 fold		45%			
Nc1nc2ncc(CNc3ccc(C(=O)N[C@@H](CCC(=O)NCCCCCC(=O)OC[C@H]4O[C@@H](n5cnc6c(N)ncnc65)[C@H](OP(=O)(O)OC[C@@H]5C[C@@H](OP(=O)(O)OC[C@@H]6C[C@@H](O)[C@H](n7cnc8c(N)ncnc87)O6)[C@H](n6cnc7c(N)ncnc76)O5)[C@@H]4O)C(=O)O)cc3)nc2c(=O)[nH]1 [compound 33]	7.5 fold and 7.2 fold		81%	35%		
(2′-5′)d^3′(A-A-A) [CCC]	4.8 fold		96%	12%	no activation	inhibits HIV-1 production
